Experimental data reported in patent US4767621A (priority 1982, dated 1988).

Legend:
[1] = system: human T lymphoblastoid cells of the CEM line bearing the antigen T-65
[2] = system: mouse; conditions: intra-peritoneally, Westley 1977; cited from earlier work
[3] = Acute toxicity of monensin, single intra-peritoneal administration (own experiments); format: in vivo, mouse; conditions: mouse, in vivo, ip; single administration intra-peritoneally; read-out: 50% lethal dose, per body weight
Method: (§1) Thus the acute toxicity of monensin in a single administration intra-peritoneally in the Charles River France mouse is characterised by a 50% lethal dose of 340 micrograms per mouse, namely 17 mg/kg of body weight.

[4] = system: Charles River France mouse; experiment: as above; format: in vivo; conditions: single administration intra-peritoneally
Method: as §1

SMILES | potentiating effect (factor) on the cytotoxicity of immunotoxin anti-T-65 [1] | spontaneous cytotoxicity of the ionophore for the cells employed [1] | 50% lethal dose (LD50) [2] | LD50 [3] | 50% lethal dose, per mouse [4]
CC[C@@H](C(=O)[C@@H](C)[C@@H](O)[C@H](C)CCc1ccc(C)c(O)c1C(=O)O)[C@H]1O[C@](CC)([C@H]2CC[C@](O)(CC)[C@H](C)O2)C[C@@H]1C [Lasalocide, lasalocide] | ~36000 | not spontaneously cytotoxic | 64 mg/kg | – | –
CC[C@@]1([C@@H]2O[C@@H]([C@H]3O[C@@](O)(CO)[C@H](C)C[C@@H]3C)C[C@@H]2C)CC[C@H]([C@]2(C)CC[C@]3(C[C@H](O)[C@@H](C)[C@@H]([C@@H](C)[C@@H](OC)[C@H](C)C(=O)O)O3)O2)O1 [Monensin, monensin] | ~55000 | not spontaneously cytotoxic | 16.8 mg/kg | 17 mg/kg | 340 micrograms per mouse
CO[C@@H]1C[C@@H](C[C@H]2CC[C@H](C)[C@H]([C@@H](C)C(=O)O)O2)O[C@]2(O[C@](C)([C@H]3CC[C@@](C)([C@@H]4O[C@@H]([C@H]5O[C@@](O)(CO)[C@H](C)C[C@@H]5C)C[C@@H]4C)O3)C[C@H]2C)[C@@H]1C [Nigericin, nigericin] | ~7000 | not spontaneously cytotoxic | 65 mg/kg | – | –
